Data reported in patent US20080109040A1, “METHOD OF TREATING ARRHYTHMIAS” (priority 2002, published 2008).
Like-named read-outs stand apart in the source and are kept apart here. Marks after values point to notes of the source that are not given here.

Key:
[1] = system: guinea pig ventricular myocytes; assay: Action potential duration, EADs and triggered activity in guinea pig ventricular myocytes
Description: Single ventricular myocytes were isolated from the hearts of adult, male guinea pigs (Harlan). In brief, the hearts were perfused with warm (35° C.) and oxygenated solutions in the following order: 1) Tyrode solution containing (in mmol/L) 140 NaCl, 4.6 KCl, 1.8 CaCl2, 1.1 MgSO4, 10 glucose and 5 HEPES, pH 7.4, for 5 minutes; 2) Ca^2+-free solution containing (in mmol/L) 100 NaCl, 30 KCl, 2 MgSO4, 10 glucose, 5 HEPES, 20 taurine, and 5 pyruvate, pH 7.4, for 5 minutes; and 3) Ca^2+-free solution containing sollagenase (120 units/ml) and albumin (2 mg/ml), for 20 minutes. At the end of the perfusion, the ventricles were removed, minced, and gently shaken for 10 minutes in solution #3. Isolated cells were harvested from the cell suspension.
Myocytes were placed into a recording chamber and superfused with Tyrode solution at 35° C. Drugs were applied via the superfusate. Action potentials were measured using glass microelectrodes filled with a solution containing (in mmol/L) 120 K-aspartate, 20 KCl, 1 MgCl2, 4 Na2ATP, 0.1 Na3GTP, 10 glucose, 1 EGTA and 10 HEPES (pH 7.2). Microelectrode resistance was 1-3 MΩ. An Axopatch-200 amplifier, a DigiData-1200A interface and pCLAMP6 software were used to perform electrophysiological measurements. Action potentials were induced by 5-ms depolarizing pulses applied at various frequencies as indicated. The duration of action potential was measured at 50% (APD50) and 90% (APD90) repolarization.
1) Ventricular myocytes were electrically stimulated at a frequency of 0.5, 1 or 2 Hz. Each myocyte was treated with 3, 10 and 30 μmol/L ranolazine. The effect of ranolazine on action potential duration at each pacing frequency was determined from 4 myocytes.
2) Action potentials were elicited at a frequency of 0.25 Hz, and the effect of ranolazine (10 μmol/L) on action potential duration was examined in the presence of 5 μmol/L quinidine. Experiments were performed on 4 myocytes.
Following the procedures and protocols of Example 21, guinea pig ventricular myocytes were electrically stimulated in the presence of ranolazine either alone or in the presence of ATX II [a sea anemone toxin known to mimic LQT3 syndrome by slowing Na^+-channel inactivation from the open state and thereby increasing the peak and late Na^+ current (INa) of cardiomyocytes]. ATXII is known to induce early afterdepolarizations (EADs) and triggered activity and ventricular tachycardia.
Action potentials were recorded using the whole-cell patch-electrode technique. Ventricular monophasic action potentials and electrograms were recorded from isolated hearts.
The ventricular APD of guinea pigs isolated myocytes and hearts was measured, respectively, at 50% (APD50) and 90% (MAPD90) repolarization.

[2] = system: guinea pig isolated heart; assay: K-H buffer perfused guinea pig isolated heart: MAP duration, EADs and VT
Description: To study the effect of ranolazine on ATXII induced MAP (monophasic action potential) duration prolongation, EADs and ventricular tachyarrhythmia (VT), the K—H buffer perfused guinea pig isolated heart model was used.
Multiple EADs and sustained depolarizations were frequently observed.

anesthetized dog = assay: QT prolongation and arrhythmia induction in anesthetized dog with AV block and phenylephrine challenge; conditions: for Arrhythmia occurrence: individual dogs; for Mean ERP LV / Mean ERP RY: sot 8 + 4
Description: Dogs were pretreated with Atravet (0.07 mg/kg sc) and then 15 minutes later anesthetized with ketamine (5.3 mg/kg iv) and valium (0.25 mg/kg iv) followed by isoflurane (1-2%), intubated and subjected to mechanical ventilation. They were then subjected to AV block with radiofrequency ablation. A median sternotomy was performed and catheters were inserted into a femoral artery for blood pressure (BP) recording and into both femoral veins for infusion of test drugs. Bipolar electrodes were inserted into both ventricles for programmed stimulation determination of refractory periods (extrastimulus technique), as well as for evaluation of QT interval and QRS duration at various controlled basic cycle lengths (BCLs). TdP was induced by challenges of phenylephrine, which were given as bolus intravenous doses of 10, 20, 30, 40 and 50 μg/kg. After each dose, the ECG was monitored continuously to detect arrhythmias. […] Test drug effects were evaluated as per protocols below.
Data are presented as the mean ±S.E.M. Statistical comparisons were made with Student's t test. A 2-tailed probability<0.05 was taken to indicate statistical significance. In data tables, * denotes P<0.05, **P<0.01.
Group 2 (6 dogs): Five dogs received ranolazine as a 0.5 mg/kg iv load followed by a first, a second and a third continuous iv infusion of 1.0, 3.0 and 15 mg/kg/hr, respectively. One dog received ranolazine as a 1.5 mg/kg iv load followed by infusions of 15 and 30 mg/kg/hr. […] The phenylephrine challenges were then given, with all doses given at each drug infusion rate, and any arrhythmias monitor.

Compound: ATXII: a sea anemone toxin known to mimic LQT3 syndrome by slowing Na+-channel inactivation from the open state [reference compound]
- Increase of APD50 ([1]; ATX-II 3 nmol/L alone): 6±2%
- Induction of EADs ([1]; ATX-II 10-20 nmol/L): induced EADs in all cells
- APD50 in the presence of ATX-II ([1]; ATX-II 10-20 nmol/L, n=24): 1,148±49 ms
- Induction of EADs ([1]; ATXII 10-40 nmol/L): induced EADs in all cells
- APD50 in the presence of ATXII ([1]; ATXII 10-40 nmol/L, n=20): 1,154±61 ms
- Increase of MAPD90 ([2]; ATX-II 7 nmol/L alone): 32±0.1%
- Isolated hearts with EADs and (polymorphic) VT ([2]; ATXII 10-20 nM): 10/14
- Prolongation of MAPD90 ([2]; ATXII 10-20 nM, 4 hearts without rapid ventricular arrhythmia): 6%
- Isolated hearts with EADs and (polymorphic) VT ([2]; ATXII 10-20 nM, listed as ATX-II): 10 of 14

Compound: Cc1cccc(CCN2CCC(C(=O)c3ccc(NS(C)(=O)=O)cc3)CC2)n1 [E-4031, reference compound]
- Increase of APD50 ([1]; E-4031 1 μmol/L, absence of ATX-II): 11±2%
- Increase of APD50 ([1]; E-4031 1 μmol/L, presence of ATX-II): 104±41%
- Increase of MAPD90 ([2]; E-4031 1 μmol/L alone): 30.1±0.1%
- Increase of MAPD90 ([2]; E-4031 applied with ATX-II): 127.1±0.4%

Compound: C=C[C@H]1C[N@@]2CC[C@H]1C[C@@H]2[C@@H](O)c1ccnc2ccc(OC)cc12 [quinidine, reference compound]
- Effect on duration of action potential ([1]; quinidine 5 μmol/L, 0.25 Hz): increased the duration of action potential

Compound: CCS(=O)(=O)N(C)[C@H]1c2cc(C#N)ccc2OC(C)(C)[C@@H]1O [293B, reference compound]
- Induction of EADs [1]: induced EADs in the presence, but not in the absence, of ATX-II
- Increase of APD50 ([1]; 293B 30 μmol/L, absence of ATX-II): 40±7%
- Increase of APD50 ([1]; 293B 30 μmol/L, presence of ATX-II): 202±59%
- Increase of MAPD90 ([2]; 293B 1 μmol/L alone): 6.3±0.2%
- Increase of MAPD90 ([2]; 293B applied with ATX-II): 31.6±0.1%

Compound: CC(C)NCC(O)c1ccc(NS(C)(=O)=O)cc1 (racemic) [sotalol, reference compound]
- Arrhythmia occurrence (anesthetized dog; Sot 8 + 4 plus phenylephrine 10 μg/kg, — = none): death
- Arrhythmia occurrence (anesthetized dog; Sot 8 + 4 plus phenylephrine 30 μg/kg): death
- Arrhythmia occurrence (anesthetized dog; Sot 8 + 4 plus phenylephrine 40 μg/kg): tdp VF death
- Arrhythmia occurrence (anesthetized dog; Sot 8 + 4 plus phenylephrine 50 μg/kg): death
- Effect on QRS duration (anesthetized dog; dog, in vivo): did not affect
- Mean ERP LV (anesthetized dog; BCL 300): 201.25 ± 18.75 ms
- Mean ERP RY (anesthetized dog; BCL 300): 181.33 ± 8.21** ms
- Mean ERP LV (anesthetized dog; BCL 400): 226.25 ± 21.25 ms
- Mean ERP RY (anesthetized dog; BCL 400): 195.67 ± 7.53** ms
- Mean ERP LV (anesthetized dog; BCL 600): 262.50 ± 27.5* ms
- Mean ERP RY (anesthetized dog; BCL 600): 223.50 ± 9.07** ms
- Mean ERP LV (anesthetized dog; BCL 1000): 286.25 ± 16.25* ms
- Mean ERP RY (anesthetized dog; BCL 1000): 255.50 ± 9.56** ms
- Death from torsade de pointes degenerating to ventricular fibrillation (anesthetized dog; sotalol infusion and a phenylephrine bolus): All the dogs eventually died
